Source: patent US20020013478A1, “Calanolide analogues and methods of their use” (Sarawak Medichem Pharmaceuticals,Inc., priority 1994, published 2002)
Read-outs that look alike come from different tables or passages of the source.

What was measured:
CEM-SS cells = test: CEM-SS MTT assay, cytotoxicity (Table I); assay type: cell-based, human
[1] = tested on: HCMV isolates Towne, AD169, E. Mann, Coffman, C9208; test: Anti-CMV plaque reduction assay against various laboratory and clinical isolates (Example 40); assay type: cell-based, human cytomegalovirus
Experimental: On the date of assay, the drug is made up at twice the desired concentration in 2x MEM and then serially diluted 1:5 in 2x MEM using six concentrations of drug. The initial starting concentration is usually 200 gg/mL down to 0.06 μg/mL. […] The media is then aspirated from the wells and 0.2 mL of virus is added to each well in duplicate with 0.2 mL of media being added to drug toxicity wells. The plates are then incubated for one hour with shaking every fifteen minutes. […] This will give final drug concentrations beginning with 100 μg/mL and ending with 0.03 μg/mL and a final agarose overlay concentration of 0.5%. The drug agarose mixture is applied to each well in 2 mL volume and the plates then incubated for three days, after which the cells were stained with a 1.5% solution of neutral red. At the end of 4-6hr incubation period, the stain is aspirated, and plaques counted using a stereomicroscope at lOx magnification. The procedure again is nearly the same as for HSV with a few minor changes. […] The assay is incubated for 14 days with the additional 1 mL overlays being applied on days four and eight. The procedure for the liquid overlay plaque assay is similar to that using the agarose overlay. The procedure for adding the virus is the same as for the regular plaque assay. The drugs are made up in a concentration to be used in MEM with 2% FBS. The drugs are not made up at 2x concentration as in the previous assays but are made up at the desired concentration. For HSV-1 and HSV-2 assays, an antibody preparation obtained from Baxter Health Care Corporation is diluted 1:500 and added to the media that the drug is diluted in. For CMV and VZV, no antibody in the overlay is utilized. For the CMV assay, additional medium without new drug is added on day five and allowed to incubate for a total of 10 days. For VZV, additional medium is added on day five and incubated for a total of 10 days. At the end of the incubation period for all of the assays, 2 mL of 1:10 dilution of stock neutral is added to each well incubated for six hours. The liquid is then aspirated off and plaques enumerated using a stereomicroscope. Five calanolide analogues, prepared as described above, were further evaluated for their anti-HCMV activity in plaque reduction assay against various laboratory and clinical isolates (Towne, AD 169, E. Mann, Coffinan, and […]).

HIV-1 = conditions: for EC50 / Maximum Protection (%): CEM-SS MTT assay; for protecting cells against HIV infection: text summary of Table I
2.2.15 cells = test: Toxicity in 2.2.15 cells, neutral red dye uptake; assay type: cell-based, human; conditions: Table II; read-out: HBV IC50
Experimental: Cells of 2.2.15 were grown to confluence in 96-well flat-bottomed tissue culture plates and treated with compounds (in 0.2 mL culture medium/well) as described above. Four concentrations of each compound were assayed, each in triplicate cultures, in 3- to 10-fold steps. Untreated control cultures were maintained on each 96-well plate. On each 96-well plate, wells containing no cells were used to correct for light scattering.

HCMV = HCMV semi-automated CPE-inhibition assay in human foreskin fibroblast cells; assay type: cell-based, human cytomegalovirus; conditions: Table II
[2] = tested on: human foreskin fibroblast cells; test: Toxicity run with the HCMV assay, human foreskin fibroblast cells; assay type: cell-based; conditions: Table II
Experimental: [table] […] The media from the wells is then aspirated and 2 mL of each drug concentration is then added to each well. The cells are then incubated in a CO2 incubator at 37° C. for 72 h. At the end of this time, the media-drug solution is removed and the cells washed. […] The cell-media mixture is then pipetted up and down vigorously to break up the cell suspension, and 0.2 mL of the mixture is added to 9.8 mL of Isoton III and counted using a Coulter Counter. Each sample is counted three times with three replicate wells per sample. The procedure for plating cells and adding drug is the same as for the MTT Assay. After drug addition, the plates are incubated for seven days in a CO2 incubator at 37° C. […] This is incubated in the CO2 incubator for one hour. The dye is aspirated and the cells are washed using a Nunc Plate Washer. […] The plates are rotated for 15 minutes and the optical densities are read at 550 nm on a plate reader.

HBV = HBV replication in cultures of 2.2.15 cells, extracellular HBV virion DNA (primary assay); conditions: read-out: HBV EC50; Table II

Compound	IC50 (CEM-SS cells)	EC50 (HIV-1)	Maximum Protection (%) (HIV-1)	protecting cells against HIV infection (HIV-1)	other results
CCCc1cc(=O)oc2c3c(c4c(c12)OC(C)(C)C=C4)OC(C)C(C)C3=O (racemic) [(±)-7, 10,11-trans-dihydro-4-propyl-6,6,10,11-tetramethyl-2H,6H,12H-benzo[1,2-b:3,4-b′:5,6-b″]-tripyran-2,12-dione]	19.1 µM	1180 nM	90%	highly efficacious	EC50 ([1]; isolate AD169): 3.16 µM; EC50 ([1]; isolate C9208): 7.16 µM; EC50 ([1]; isolate Coffman): 3.34 µM; EC50 ([1]; isolate E. Mann): 3.16 µM; EC50 ([1]; isolate Towne): 3.34 µM
CCCc1cc(=O)oc2c(C(=O)C(C)(C)C(C)O)c(O)c3c(c12)OC(C)(C)C=C3 (racemic) [(±)-14a, (±)-6,6-Dimethyl-10-(2,2-dimethyl-3-hydroxybutyro)-9-hydroxy-4-propyl-2H,6H-benzo[1,2-b:3,4-b′]dipyran-2-one]	37 µM				
CCCc1cc(=O)oc2c(C(=O)C(C)C(C)(C)O)c(O)c3c(c12)OC(C)(C)C=C3 (racemic) [(±)-14b, (±)-6.6-Dimethyl-10-(2,3-dimethyl-3-hydroxybutyro)-9-hydroxy4-propyl-2H,6H-benzo[1,2-b:3,4-b′]dipyran-2-one]	27.1 µM				
CCCc1cc(=O)oc2c3c(c4c(c12)OC(C)(C)C=C4)OC(C)C(C)(C)C3O (racemic) [(±)-16a, (±)-10,12-cis-10,11-Dihydro-12-hydroxy-6,6,10,11,11-pentamethyl-4propyl-2H, 6H, 12H-benzo [1,2-b:3,4-b′:5,6-b″]tripyran-2-one]	20.3 µM				
CCCc1cc(=O)oc2c3c(c4c(c12)OC(C)(C)C=C4)OC(C)C(C)(C)C3O (racemic) [(±)-16b, (±)-10,12-trans-10,11-dihydro-12-hydroxy-6,6,10,11,11-pentamethyl-4-propyl-2H,6H,12H-benzo [1,2-b:3,4-b′:5,6-b″]tripyran-2-one]	16.9 µM	2360 nM	78%	highly efficacious	
CCCc1cc(=O)oc2c3c(c4c(c12)OC(C)(C)C=C4)OC(C)(C)C(C)C3O (racemic) [(±)-16c, (±)-11,12-cis-10,11-Dihydro-12-hydroxy-6,6,10,10,11-pentamethyl-4-propyl-2H, 6H, 12H-benzo [1,2-b:3,4-b′:5,6-b″]tripyran-2-one]	21.3 µM				
CCCc1cc(=O)oc2c3c(c4c(c12)OC(C)(C)C=C4)OC(C)(C)C(C)C3O (racemic) [(±)-16d, (±)-11,12-trans-10,11-dihydro-12-hydroxy-6,6,10,10,11-pentamethyl-4-propyl-2H,6H,12H-benzo [1,2-b:3,4-b′:5,6-b″]tripyran-2-one]	21 µM	5660 nM	88%	highly efficacious	
CCCc1cc(=O)oc2c3c(c4c(c12)OC(C)(C)C=C4)OC(CC)C(C)C3O (racemic) [(±)-16e, (±)-10,11-trans-11,12-cis-10,11-Dihydro-10-ethyl-12-hydroxy-4-propyl-6,6,11-trimethyl-2H,6H,12H-benzo [1,2-b:3,4-b′:5,6-b″]tripyran-2-one]	14 µM	1670 nM	88%	highly efficacious	
CCCc1cc(=O)oc2c3c(c4c(c12)OC(C)(C)C=C4)OC(CC)C(C)C3O (racemic) [(±)-16f, (±)-10,11-qrans-11,12-trans-10,11-dihydro-10-ethyl-12-hydroxy4-propyl-6,6,11-trimethyl-2H,6H,12H-benzo [1,2-b:3,4-b′:5,6-b″]tripyran-2-one]	17.7 µM	1970 nM	86%	highly efficacious	
CCCc1cc(=O)oc2c3c(c4c(c12)OC(C)(C)C=C4)OC(CC)C(C)C3O (racemic) [(±)-16g, (±)-10,11-cis-11,12-trans-10,11-Dihydro-10-ethyl-12-hydroxy-4-propyl-6,6,11-trimethyl-2H,6H,12H-benzo [1,2-b:3,4-b′:5,6-b″]tripyran-2-one]	11.6 µM				
CCCc1cc(=O)oc2c3c(c4c(c12)OC(C)(C)C=C4)OC(CC)C(C)C3O (racemic) [(±)-16h, (±)-10,11,12-cis-10,11-dihydro10-ethyl-12-hydroxy4-propyl-6,6,11-trimethyl-2H,6H,12H-benzo [1,2-b:3,4-b′:5,6-b″]tripyran-2-one]	20.9 µM				
CCCc1cc(=O)oc2c3c(c4c(c12)OC(C)(C)C=C4)O[C@H](C)[C@@H](C)C3=NO (racemic) [(±)-19a, (±)10,11-trans-10,11-Dihydro4-propyl-6,6,10,11-tetramethyl-2H, 6H, 12H-benzo [1,2-b:3,4-b′:5,6-b″]tripyran-2,12-dione-12-oxime]	15.8 µM				
CCCc1cc(=O)oc2c3c(c4c(c12)OC(C)(C)C=C4)OC(C)C(C)C3=NOC (racemic) [(±)-19b, (±)-10,11-trans-10,11 -Dihydro4-propyl-6,6,10,11-tetramethyl-2H, 6H, 12H-benzo [1,2-b:3,4-b′:5,6-b ″]tripyran-2,12-dione-12-methoxime]	> 100 µM	> 100000 nM			
CCCc1cc(=O)oc2c3c(c4c(c12)OC(C)(C)C=C4)OC(C)C(C)C3=O (single isomer, unassigned; (-)) [(−)-7a]					IC50 (2.2.15 cells): 86 µM; HCMV EC50 (HCMV): >4.0 µg/mL; HCMV IC50 [2]: 11.9 µg/mL; EC50 (HBV): > 10 µM
CCCc1cc(=O)oc2c(C(=O)[C@H](C)[C@@H](C)OC(C)=O)c(O)c3c(c12)OC(C)(C)C=C3 [(+)-10, 6,6Dimethyl-9-hydroxy-10-[2(R)-methyl-3(R)-acetoxybutyro]-4-propyl-2H,6H-benzo-[1,2-b:3,4-b′]dipyran-2-one]	9.27 µM	890 nM	88%	highly efficacious	
CCCc1cc(=O)oc2c3c(c4c(c12)OC(C)(C)C=C4)O[C@@H](C)C(C)=C3 [Compound 22, 10(S)4-propyl-6,6,10,11-tetramethyl-2H,6H,10H-benzo [1,2-b:3,4-b′:5,6-b″]tripyran-2-one]					IC50 (CEM-SS cells; Homo sapiens): 24.7 µM
